Reference: patent publication US9708309B2, “Arylcyclopropylamine based demethylase inhibitors of LSD1 and their medical use” (Oryzon Genomics S.A., priority 2010, dated 2017)
“Also recorded” adds a separate entry of the source.

Key:
Human recombinant MAO-A = Human recombinant MAO-A (Homo sapiens (Human), UniProt P21397); assay: biochemical
Source text: Human recombinant monoamine oxidase proteins MAO-A and MAO-B were purchased from Sigma Aldrich. […] In order to monitor MAO enzymatic activities and/or their inhibition rate by inhibitor(s) of interest, a fluorescent-based (inhibitor)-screening assay was set up. 3-(2-Aminophenyl)-3-oxopropanamine (kynuramine dihydrobromide, Sigma Aldrich), a non fluorescent compound was chosen as a substrate. Kynuramine is a non-specific substrate for both MAOs activities. While undergoing oxidative deamination by MAO activities, kynuramine is converted into 4-hydroxyquinoline (4-HQ), a resulting fluorescent product.
The monoamine oxidase activity was estimated by measuring the conversion of kynuramine into 4-hydroxyquinoline. Assays were conducted in 96-well black plates with clear bottom (Corning) in a final volume of 100 μL. […]
After leaving the enzyme(s) interacting with the inhibitor, 60 to 90 μM of kynuramine was added to each reaction for MAO-B and MAO-A assay respectively, and the reaction was left for 1 hour at 37° C. in the dark. […] The conversion of kynuramine to 4-hydroxyquinoline, was monitored by fluorescence (excitation at 320 nm, emission at 360 nm) using a microplate reader (Infinite 200, Tecan). Arbitrary units were used to measure levels of fluorescence produced in the absence and/or in the presence of inhibitor.
The Ki (IC50) of each inhibitor was determined at Vmax/2.

LSD1 protein = LSD1 protein (Homo sapiens (Human), UniProt O60341); settings: 25° C., H3-K4me2 peptide
Procedure: The kinetic parameters of LSD1 demethylase inhibition were obtained using the peroxidase-coupled reaction method. […] The final DMSO concentration was 0.7% and constant in all assay wells.
The conversion of the Amplex® Red reagent to resorufin due to generation of H2O2 was continuously monitored by fluorescence (excitation at 540 nm, emission at 590 nm) using a microplate reader (Infinite 200, Tecan). A solution of 1 μM H2O2 was used to calibrate the fluorescence signal and the temperature was kept constant at 25° C.
Briefly, progress curves obtained in the presence of test compound were fit to derive kobs (k) based on the following equation:
The kobs values were then used to derive the kinetic constant by using the following equations (Kitz and Wilson analysis):

MAO-B = MAO-B (Homo sapiens (Human), UniProt P27338); settings: ratio of kinact/KI MAO-B over MAO-A
Sequence of MAO-B (P27338 whole entry): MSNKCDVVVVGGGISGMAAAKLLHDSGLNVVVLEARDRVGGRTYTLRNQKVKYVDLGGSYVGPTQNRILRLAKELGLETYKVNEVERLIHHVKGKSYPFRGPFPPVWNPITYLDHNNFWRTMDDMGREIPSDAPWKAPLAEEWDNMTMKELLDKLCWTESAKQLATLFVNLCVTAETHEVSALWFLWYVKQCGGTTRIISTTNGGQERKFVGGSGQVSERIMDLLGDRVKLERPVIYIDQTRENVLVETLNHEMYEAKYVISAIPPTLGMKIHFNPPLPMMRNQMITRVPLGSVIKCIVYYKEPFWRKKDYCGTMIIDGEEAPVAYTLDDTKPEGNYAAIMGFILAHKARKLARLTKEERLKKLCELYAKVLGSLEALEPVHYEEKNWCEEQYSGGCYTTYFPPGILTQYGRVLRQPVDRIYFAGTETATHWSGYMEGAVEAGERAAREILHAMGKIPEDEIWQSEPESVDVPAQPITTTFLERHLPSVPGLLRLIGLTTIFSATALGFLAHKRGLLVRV
Procedure: For MAO-B, the protein was kept between 1.8 and 3.6 ng/ul (Sigma M7441) and kynuramine (Sigma) at 50 uM was used as substrate.

Sequence of Human recombinant MAO-A (P21397 whole entry): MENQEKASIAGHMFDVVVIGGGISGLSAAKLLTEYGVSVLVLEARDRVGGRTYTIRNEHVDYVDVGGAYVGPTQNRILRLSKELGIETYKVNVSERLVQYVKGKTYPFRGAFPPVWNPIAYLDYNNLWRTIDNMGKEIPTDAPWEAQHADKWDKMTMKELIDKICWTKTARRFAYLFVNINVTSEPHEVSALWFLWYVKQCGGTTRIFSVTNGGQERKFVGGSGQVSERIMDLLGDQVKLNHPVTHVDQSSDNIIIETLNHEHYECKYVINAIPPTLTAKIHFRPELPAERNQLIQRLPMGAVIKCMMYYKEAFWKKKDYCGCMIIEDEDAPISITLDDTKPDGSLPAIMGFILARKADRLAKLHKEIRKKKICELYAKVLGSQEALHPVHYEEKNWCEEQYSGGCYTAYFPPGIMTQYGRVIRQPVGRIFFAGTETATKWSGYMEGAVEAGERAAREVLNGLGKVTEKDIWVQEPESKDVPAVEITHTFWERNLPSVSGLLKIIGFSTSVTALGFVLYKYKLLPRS

A Ki (Human recombinant MAO-A) of 1 to 40 µM was found for `Nc1nnc(CN[C@H]2C[C@@H]2c2ccc(OCc3cccc(F)c3)cc2)o1` (relative stereo) [Example 12, 5-((((trans)-2-(4-((3-fluorobenzyl)oxy)phenyl)cyclopropyl)amino)methyl)-1,3,4-oxadiazol-2-amine] in this work.

A Ki (Human recombinant MAO-A) of 1 to 40 µM was found for `Nc1nnc(CN[C@H]2C[C@@H]2c2ccc(OCc3ccc(Cl)cc3)cc2)o1` (relative stereo) [Example 14, 5-((((trans)-2-(4-((4-chlorobenzyl)oxy)phenyl)cyclopropyl)amino)methyl)-1,3,4-oxadiazol-2-amine] in this work.

For `C#CCN[C@@H]1CCc2ccccc21` [Rasagiline], the “Catalytic efficiency kinact/KI, LSD1” value (LSD1 protein) was “not active; also recorded: Inactive” and the “selectivity index kinact/KI for MAO-B/MAO-A” value (MAO-B) was 120.
